23 compounds from US9662327B2 (AGIOS PHARMACEUTICALS, INC, priority 2011, dated 2017) can be followed below.

Like-named read-outs stand apart in the source and are kept apart here. A value given as a limit tells only on which side of the number the result lay.

The test system of one test is U87R132H (U87MG) cells. Nature of the test: Cellular assay for IDH1m inhibitors: inhibition of 2-HG production in U87MG (U87R132H) cells (LC-MS). Type of test: cell-based. The settings on record: Homo sapiens, U-87 MG, 48 hours. As to the method: (§1) Cells (e.g., HT1080 or U87MG) are grown in T125 flasks in DMEM containing 10% FBS, 1× penicillin/streptomycin and 500 ug/mL G418. They are harvested by trypsin and seeded into 96 well white bottom plates at a density of 5000 cell/well in 100 ul/well in DMEM with 10% FBS. No cells are plates in columns 1 and 12. Cells are incubated overnight at 37 C in 5% CO2. The next day compounds are made up at 2× concentration and 100 ul are added to each cell well. The final concentration of DMSO is 0.2% and the DMSO control wells are plated in row G. The plates are then placed in the incubator for 48 hours. At 48 hours, 100 ul of media is removed from each well and analyzed by LC-MS for 2-HG concentrations. The cell plate is placed back in the incubator for another 24 hours. At 72 hours post compound addition, 10 mL/plate of Promega Cell Titer Glo reagent is thawed and mixed. The cell plate is removed from the incubator and allowed to equilibrate to room temperature. Then 100 ul of reagent is added to each well of media. The cell plate is then placed on an orbital shaker for 10 minutes and then allowed to sit at room temperature for 20 minutes. The plate is then read for luminescence with an integration time of 500 ms.

The test system of another test is HT1080 cells. Nature of the test: Cellular assay for IDH1m inhibitors: inhibition of 2-HG production in HT1080 cells (LC-MS). Type of test: cell-based. Particulars: Homo sapiens, HT-1080, 48 hours. As for the experimental part:
as §1

The next test has as its target IDH1 R132H (Homo sapiens (Human), UniProt O75874, R132H). Nature of the test: Assays for IDH1 R132H Inhibitors (NADPH/aKG, resazurin detection). The class given is biochemical. Particulars: IDH1 R132H enzyme. The method in brief: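 Mutant enzyme in 150 mM NaCl, 10 mM MgCl2, 20 mM Tris pH 7.5, 0.03% BSA; compound in DMSO added to substrate mix of 8 uM NADPH and 2 mM aKG. Reaction ran 50 min at room temperature, then resazurin detection mix (30 μM) added for 5 min at room temperature.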

Where [1] appears, read: Table 2, read-out: IDHR132H Activity.

Chain of IDH1 R132H (O75874 whole entry R132H): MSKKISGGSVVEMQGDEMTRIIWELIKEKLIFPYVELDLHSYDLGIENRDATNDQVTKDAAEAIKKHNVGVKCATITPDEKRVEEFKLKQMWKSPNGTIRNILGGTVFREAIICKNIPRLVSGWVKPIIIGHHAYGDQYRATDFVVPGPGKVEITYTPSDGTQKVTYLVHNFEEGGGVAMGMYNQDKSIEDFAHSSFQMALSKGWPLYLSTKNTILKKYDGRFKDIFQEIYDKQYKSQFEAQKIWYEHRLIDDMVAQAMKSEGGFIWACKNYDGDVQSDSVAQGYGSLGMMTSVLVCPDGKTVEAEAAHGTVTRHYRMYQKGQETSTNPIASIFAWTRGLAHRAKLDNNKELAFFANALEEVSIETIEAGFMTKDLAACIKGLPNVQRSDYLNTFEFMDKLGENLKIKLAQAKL

On to `CC(C)[C@@H]1CN(c2nc(C3CC3)c3c(c2C#N)CC(C)(C)OC3)CCN1C(=O)[C@@H]1C[C@H]1CO` [Compound 462, 8-Cyclopropyl-6-((R)-4-((1R,2R)-2-(hydroxymethyl)cyclopropanecarbonyl)-3-isopropylpiperazin-1-yl)-3,3-dimethyl-3,4-dihydro-1H-pyrano[3,4-c]pyridine-5-carbonitrile], for which the IC50 was 500 to 1000 nM in the test with U87R132H (U87MG) cells; 500 to 1000 nM in the test with HT1080 cells; below 500 nM on IDH1 R132H (Table 3, read-out: R132H IC50).

For `CCOC(=O)CCC(=O)N1CCN(c2nc(C3CC3)c3c(c2C#N)CC(C)(C)OC3)C[C@H]1C(C)C` [Compound 456, (R)-ethyl-4-(4-(5-cyano-8-cyclopropyl-3,3-dimethyl-3,4-dihydro-1H-pyrano[3,4-c]pyridin-6-yl)-2-isopropylpiperazin-1-yl)-4-oxobutanoate], the IC50 with U87R132H (U87MG) cells is below 500 nM; with HT1080 cells, 500 to 1000 nM; at IDH1 R132H (Table 3, read-out: R132H IC50), below 500 nM.

Regarding `COCCC(=O)N1CCN(c2nc(C3CC3)c3c(c2C#N)CCN(S(C)(=O)=O)C3)C[C@H]1C1CC1` [Compound 479, (R)-1-cyclopropyl-3-(3-cyclopropyl-4-(3-methoxypropanoyl)piperazin-1-yl)-7-(methylsulfonyl)-5,6,7,8-tetrahydro-2,7-naphthyridine-4-carbonitrile], the IC50 in the test with U87R132H (U87MG) cells is below 500 nM; in the test on HT1080 cells it was 500 to 1000 nM; at IDH1 R132H (Table 3, read-out: R132H IC50) it was below 500 nM. Regarding `C=C(F)C(=O)N1CCc2c(C3CC3)nc(N3CCN(C(=O)CCOC)[C@H](C4CC4)C3)c(C#N)c2C1` [Compound 492], the IC50 in the test on HT1080 cells is 1000 to 10000 nM; at IDH1 R132H (Table 3, read-out: R132H IC50), 500 to 1000 nM. As for `C=CC(=O)N1CCc2c(C3CC3)nc(N3CCN(C(=O)C4CC4)[C@H](C4CC4)C3)c(C#N)c2C1` [Compound 482, (R)-6-acryloyl-3-(4-(cyclopropanecarbonyl)-3-cyclopropylpiperazin-1-yl)-1-cyclopropyl-5,6,7,8-tetrahydro-2,6-naphthyridine-4-carbonitrile], the IC50 in the test on U87R132H (U87MG) cells and with HT1080 cells was below 500 nM in each case. `C#CC(=O)N1CCc2c(C#N)c(N3CCN(C(=O)CCOC)[C@H](C4CC4)C3)nc(C3CC3)c2C1` [Compound 488, (R)-1-cyclopropyl-3-(3-cyclopropyl-4-(3-methoxypropanoyl)piperazin-1-yl)-′7-propioloyl-5,6,7,8-tetrahydro-2,7-naphthyridine-4-carbonitrile]: the IC50 in the test with U87R132H (U87MG) cells and in the test on HT1080 cells was below 500 nM throughout. On to `C#CC(=O)N1CCc2c(C#N)c(-c3ccc(C(=O)OC)cc3F)nc(C3CC3)c2C1` [Compound 495], for which the IC50 in the test with HT1080 cells was below 500 nM; on IDH1 R132H (Table 3, read-out: R132H IC50), 500 to 1000 nM.

On to `C=CC(=O)N1CCc2c(C#N)c(N3CCN(C(=O)CC(F)(F)F)[C@H](C4CC4)C3)nc(C3CC3)c2C1` [Compound 490, (R)-7-acryloyl-1-cyclopropyl-3-(3-cyclopropyl-4-(3,3,3-trifluoropropanoyl)piperazin-1-yl)-5,6,7,8-tetrahydro-2,7-naphthyridine-4-carbonitrile], for which the IC50 is 500 to 1000 nM in the test with HT1080 cells and below 500 nM on IDH1 R132H (Table 3, read-out: R132H IC50).

For the compound `COCCC(=O)N1CCN(c2nc(C3CC3)c3c(c2C#N)CN(S(C)(=O)=O)CC3)C[C@H]1C1CC1` [Compound 487, (R)-1-cyclopropyl-3-(3-cyclopropyl-4-(3-methoxypropanoyl)piperazin-1-yl)-6-(methylsulfonyl)-5,6,7,8-tetrahydro-2,6-naphthyridine-4-carbonitrile], the IC50 in the test on U87R132H (U87MG) cells and in the test with HT1080 cells was 1000 to 10000 nM in each case.

For the compound `C=C(C)C(=O)N1CCc2c(C#N)c(N3CCN(C(=O)CCOC)[C@H](C4CC4)C3)nc(C3CC3)c2C1` [Compound 502, (R)-1-cyclopropyl-3-(3-cyclopropyl-4-(3-methoxypropanoyl)piperazin-1-yl)-7-methacryloyl-5,6,7,8-tetrahydro-2,7-naphthyridine-4-carbonitrile], the IC50 lay in the range of 500 to 1000 nM in the test with HT1080 cells and 500 to 1000 nM on IDH1 R132H (Table 3, read-out: R132H IC50). Regarding `CC(C)[C@@H]1CN(c2nc(C3CC3)c3c(c2C#N)CC(C)(C)OC3)CCN1C(=O)CCC(=O)OCCO` [Compound 458, (R)-2-hydroxyethyl 4-(4-(5-cyano-8-cyclopropyl-3,3-dimethyl-3,4-dihydro-1H-pyrano[3,4-c]pyridin-6-yl)-2-isopropylpiperazin-1-yl)-4-oxobutanoate], the IC50 with U87R132H (U87MG) cells was below 500 nM; in the test with HT1080 cells, 500 to 1000 nM. For the compound `C#CC(=O)N1CCc2c(C#N)c(N3CCN(C(=O)C4CC4)[C@H](C4CC4)C3)nc(C3CC3)c2C1` [Compound 491, (R)-3-(4-(cyclopropanecarbonyl)-3-cyclopropylpiperazin-1-yl)-1-cyclopropyl-7-propioloyl-5,6,7,8-tetrahydro-2,7-naphthyridine-4-carbonitrile], the IC50 is below 500 nM in the test on HT1080 cells and below 500 nM at IDH1 R132H (Table 3, read-out: R132H IC50). Regarding `N#CCC(=O)N1CCc2c(C#N)c(N3CCN(C(=O)C4CC4)[C@H](C4CC4)C3)nc(C3CC3)c2C1` [Compound 497, (R)-7-(2-cyanoacetyl)-3-(4-(cyclopropanecarbonyl)-3-cyclopropylpiperazin-1-yl)-1-cyclopropyl-5,6,7,8-tetrahydro-2,7-naphthyridine-4-carbonitrile], the IC50 in the test with HT1080 cells lay in the range of 1000 to 10000 nM; at IDH1 R132H (Table 3, read-out: R132H IC50) it was 500 to 1000 nM. Turning to `C=CC(=O)N1CCc2c(C#N)c(N3CCN(C(=O)C4CC4)[C@H](C4CC4)C3)nc(C3CC3)c2C1` [Compound 489, (R)-7-acryloyl-3-(4-(cyclopropanecarbonyl)-3-cyclopropylpiperazin-1-yl)-1-cyclopropyl-5,6,7,8-tetrahydro-2,7-naphthyridine-4-carbonitrile], the IC50 is 500 to 1000 nM in the test with HT1080 cells and below 500 nM on IDH1 R132H (Table 3, read-out: R132H IC50). As to `CC(C)c1nc(N2CCN(C(=O)c3ccco3)C(c3ccccc3)C2)c(C#N)c2c1COC(C)(C)C2` (centres unmarked) [Compound 154, 6-(4-(furan-2-carbonyl)-3-phenylpiperazin-1-yl)-8-isopropyl-3,3-dimethyl-3,4-dihydro-1H-pyrano[3,4-c]pyridine-5-carbonitrile], the IC50 at IDH1 R132H (setting [1]) was in the range of 500 to 1000 nM. On the same count and under the same terms, under `C[C@@H]1CN(c2nc(C3CCCCC3)c3c(c2C#N)CC(C)(C)OC3)CCN1C(=O)c1ccco1` [Compound 150, (R)-8-cyclohexyl-6-(4-(furan-2-carbonyl)-3-methylpiperazin-1-yl)-3,3-dimethyl-3,4-dihydro-1H-pyrano[3,4-c]pyridine-5-carbonitrile] stands 1000 to 10000 nM. With `C#CC(=O)N1CCc2c(C#N)c(N3CCN(C(=O)CCO)[C@H](C4CC4)C3)nc(C3CC3)c2C1` [Compound 500, (R)-1-cyclopropyl-3-(3-cyclopropyl-4-(3-hydroxypropanoyl)piperazin-1-yl)-7-propioloyl-5,6,7,8-tetrahydro-2,7-naphthyridine-4-carbonitrile], the IC50 in the test with HT1080 cells was in the range of 500 to 1000 nM; on IDH1 R132H (Table 3, read-out: R132H IC50), 500 to 1000 nM.

As for `C[C@@H]1CN(c2nc(C3CCCCC3)c3c(c2C#N)CCOC3)CCN1C(=O)OCc1ccccc1` [Compound 343, (R)-benzyl 4-(5-cyano-8-cyclohexyl-3,4-dihydro-1H-pyrano[3,4-c]pyridin-6-yl)-2-methylpiperazine-1-carboxylate], the IC50 on IDH1 R132H (setting [1]) lay within 1000 to 10000 nM. The same measure, in the same setting: for `C#CCNCC(=O)N1CCN(c2nc(C3CC3)c3c(c2C#N)CC(C)(C)OC3)C[C@H]1C(C)C` [Compound 373, (R)-8-cyclopropyl-6-(3-isopropyl-4-(2-(prop-2-ynylamino)acetyl)piperazin-1-yl)-3,3-dimethyl-3,4-dihydro-1H-pyrano[3,4-c]pyridine-5-carbonitrile] the value was 1000 to 10000 nM; for `Cc1ccn(CC(=O)N2CCN(c3nc(C4CC4)c4c(c3C#N)CC(C)(C)OC4)C[C@H]2C(C)C)n1` [Compound 400, (R)-8-cyclopropyl-6-(3-isopropyl-4-(2-(3-methyl-1H-pyrazol-1-yl)acetyl)piperazin-1-yl)-3,3-dimethyl-3,4-dihydro-1H-pyrano[3,4-c]pyridine-5-carbonitrile], 1000 to 10000 nM; for `CC(C)c1nc(N2CCN(C(=O)Cc3cccc(F)c3)[C@H](C(C)C)C2)c(C#N)c2c1COC(C)(C)C2` [Compound 234, (R)-6-(4-(2-(3-fluorophenyl)acetyl)-3-isopropylpiperazin-1-yl)-8-isopropyl-3,3-dimethyl-3,4-dihydro-1H-pyrano[3,4-c]pyridine-5-carbonitrile], 1000 to 10000 nM. On the same count and under the same terms, under `CCOc1ccc(NC(=O)N2CCN(c3nc(C4CC4)c4c(c3C#N)CC(C)(C)OC4)C[C@H]2C(C)C)cc1` [Compound 282, (R)-4-(5-cyano-8-cyclopropyl-3,3-dimethyl-3,4-dihydro-1H-pyrano[3,4-c]pyridin-6-yl)-N-(4-ethoxyphenyl)-2-isopropylpiperazine-1-carboxamide] stands 1000 to 10000 nM; under `CC(C)[C@@H]1CN(c2nc(C3CC3)c3c(c2C#N)CC(C)(C)OC3)CCN1C(=O)Cn1ccnc1` [Compound 374, (R)-6-(4-(2-(1H-imidazol-1-yl)acetyl)-3-isopropylpiperazin-1-yl)-8-cyclopropyl-3,3-dimethyl-3,4-dihydro-1H-pyrano[3,4-c]pyridine-5-carbonitrile], 1000 to 10000 nM.
